{
  "source": "patent US20220386611A1",
  "about": "“NOVEL HETEROARYL-TRIAZOLE COMPOUNDS AS PESTICIDES” (Bayer Aktiengesellschaft, priority 2019, published 2022)",
  "assay_type_in_all_cases": "in vivo",
  "key": {"[1]": {"system": "Musca domestica strain WHO-N", "assay": "Musca domestica test (MUSCDO surface treatment & contact assay)", "conditions": "24 hours after contact, read-out: efficacy (mortality); for mortality at 20 mg/m2: surface concentration 20 mg/m^2, 30 minutes exposure", "description": "Musca domestica Test (MUSCDO Surface Treatment & Contact Assay)\nSolvent: Aceton+2000 ppm rapeseed oil methyl ester (RME)\nIn order to produce a sufficient, active ingredient containing solution it is necessary to solve the test compound in the solvent-mix (acetone at 2 mg/ml/RME 2000 ppm). This solution is pipetted onto a glazed tile and after evaporation of the acetone, adult flies of the species Musca domestica strain WHO-N are placed onto the dried surface. The exposure time is 30 minutes. Mortality in percent (%) is determined 24 hours after contact of the insects to the treated surface. 100% mortality means that all tested insects are dead, whereas 0% means that no insect died."}, "[2]": {"system": "adult brown dog ticks (Rhipicephalus sanguineus)", "assay": "Rhipicephalus sanguineus in-vitro contact test with adult brown dog ticks", "conditions": "5 μg/cm^2 (=500 g/ha), after 48 hours, read-out: efficacy (ticks dead or moribund)", "in_short": "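Glass tubes are coated with compound dissolved in acetone, a 900 ppm solution yielding 5 μg/cm^2 on the inner surface. Adult ticks (5-10 per tube) are kept on the dry film at room temperature for 48 h, then those unable to escape 45-50° C heat are counted as dead or moribund.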"}, "[3]": {"system": "green peach aphid (Myzus persicae)", "assay": "Myzus persicae oral test", "conditions": "120 h", "in_short": "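Compound in acetone was diluted with water, and 50 μL was mixed with 150 μL IPL41 insect medium (33% + 15% sugar). A mixed aphid population fed on this through a parafilm seal. Mortality % was scored after 5 days, where 100% means all aphids were killed.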"}, "[4]": {"system": "adult unfed cat fleas (Ctenocephalides felis)", "assay": "Ctenocephalides felis oral test", "conditions": "48 h", "in_short": "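About 20 adult unfed fleas fed through parafilm on cattle blood containing compound (DMSO concentrate diluted in blood); blood held at 37° C., fleas at room temperature. Mortality in % scored after 2 days (100% = all killed).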"}, "[5]": {"system": "Aedes aegypti strain MONHEIM", "assay": "Aedes aegypti test (AEDSAE surface treatment & contact assay)", "conditions": "24 hours after contact, read-out: efficacy (mortality); for mortality at 4 mg/m2: surface concentration 4 mg/m^2, 30 minutes exposure; for mortality at 20 mg/m2: surface concentration 20 mg/m^2, 30 minutes exposure", "in_short": "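Compound dissolved in acetone (2 mg/ml) with 2000 ppm rapeseed oil methyl ester, then dried onto a glazed tile. Adult A. aegypti (MONHEIM strain) exposed to the surface for 30 min. Percent mortality scored 24 h after contact.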"}, "[6]": {"system": "fall armyworm larvae (Spodoptera frugiperda)", "assay": "Spodoptera frugiperda spray test", "conditions": "in Zea mays, 168 h", "description": "Spodoptera frukiperda—Spray Test\nSolvent: 78.0 parts by weight acetone • 1.5 parts by weight dimethylformamide\nEmulsifier: alkylarylpolyglycol ether\nTo produce a suitable preparation of active compound, 1 part by weight of active compound is mixed with the stated amount of solvents and is diluted with water, containing an emulsifier concentration of 1000 ppm, to the desired concentration. Further test concentrations are prepared by dilution with emulsifier containing water.\nMaize (Zea mays) leaf sections are sprayed with a preparation of the active ingredient of the desired concentration. Once dry, the leaf sections are infested with fall armyworm larvae (Spodoptera frugiperda).\nAfter 7 days mortality in % is determined. 100% means all caterpillars have been killed and 0% means none of the caterpillars have been killed."}, "[7]": {"system": "adult cat fleas (Ctenocephalides felis)", "assay": "Ctenocephalides felis in-vitro contact test, adult cat flea", "conditions": "after 48 hours, read-out: efficacy (fleas dead or moribund); for pest or weed control at 1 µg/cm2, 100 g/ha: 1 μg/cm^2 (=100 g/ha); for pest or weed control at 5 µg/cm2, 500 g/ha: 5 μg/cm^2 (=500 g/ha)", "in_short": "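Compound in acetone coated onto glass tube inner walls (900 ppm giving 5 μg/cm^2); after drying, 5-10 adult fleas added and held at room temperature. After 48 h, fleas heat-stressed at 45-50° C for up to 5 min; immotile or uncoordinated fleas scored dead/moribund, giving % efficacy.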"}},
  "data": [
    {"smiles": "CC(NC(=O)c1cc(C(F)(F)F)cc(C(F)(F)F)c1)c1nc(I)nn1-c1ncccn1", "note": "(stereo not shown) [Example I-021]", "values": [
      {"measurement": "mortality at 4 mg/m2", "setting": "[1]; surface concentration 4 mg/m^2, 30 minutes exposure", "result": "80 to 100", "unit": "%"},
      {"measurement": "mortality at 20 mg/m2", "setting": "[1]", "result": "80 to 100", "unit": "%"},
      {"measurement": "pest or weed control at 5 µg/cm2, 500 g/ha", "setting": "[2]", "result": 80, "unit": "%"},
      {"measurement": "mortality at 4 ppm", "setting": "[3]", "result": 100, "unit": "%"},
      {"measurement": "mortality at 100 ppm", "setting": "[4]", "result": 100, "unit": "%"},
      {"measurement": "mortality at 4 mg/m2", "setting": "[5]", "result": "80 to 100", "unit": "%"},
      {"measurement": "mortality at 20 mg/m2", "setting": "[5]", "result": "80 to 100", "unit": "%"},
      {"measurement": "mortality at 100 g/ha", "setting": "[6]", "result": 100, "unit": "%"},
      {"measurement": "pest or weed control at 1 µg/cm2, 100 g/ha", "setting": "[7]", "result": 100, "unit": "%"},
      {"measurement": "pest or weed control at 5 µg/cm2, 500 g/ha", "setting": "[7]", "result": 100, "unit": "%"}
    ]},
    {"smiles": "CC(NC(=O)c1cc(C(F)(F)F)cc(C(F)(F)F)c1)c1nc(Br)nn1-c1ncccn1", "note": "(stereo not shown) [Example I-010]", "values": [
      {"measurement": "mortality at 20 mg/m2", "setting": "[1]", "result": "80 to 100", "unit": "%"},
      {"measurement": "pest or weed control at 5 µg/cm2, 500 g/ha", "setting": "[2]", "result": 100, "unit": "%"},
      {"measurement": "mortality at 4 ppm", "setting": "[3]", "result": 100, "unit": "%"},
      {"measurement": "mortality at 100 ppm", "setting": "[4]", "result": 100, "unit": "%"},
      {"measurement": "mortality at 20 mg/m2", "setting": "[5]", "result": "80 to 100", "unit": "%"},
      {"measurement": "mortality at 100 g/ha", "setting": "[6]", "result": 100, "unit": "%"},
      {"measurement": "pest or weed control at 5 µg/cm2, 500 g/ha", "setting": "[7]", "result": 80, "unit": "%"}
    ]},
    {"smiles": "CC(NC(=O)c1cc(C(F)(F)F)cc(C(F)(F)F)c1)c1nc(Cl)nn1-c1ncccn1", "note": "(stereo not shown) [Example I-002]", "values": [
      {"measurement": "mortality at 20 mg/m2", "setting": "[1]", "result": "80 to 100", "unit": "%"},
      {"measurement": "pest or weed control at 5 µg/cm2, 500 g/ha", "setting": "[2]", "result": 80, "unit": "%"},
      {"measurement": "mortality at 4 ppm", "setting": "[3]", "result": 100, "unit": "%"},
      {"measurement": "mortality at 100 ppm", "setting": "[4]", "result": 100, "unit": "%"},
      {"measurement": "mortality at 4 mg/m2", "setting": "[5]", "result": "80 to 100", "unit": "%"},
      {"measurement": "mortality at 20 mg/m2", "setting": "[5]", "result": "80 to 100", "unit": "%"},
      {"measurement": "mortality at 100 g/ha", "setting": "[6]", "result": 100, "unit": "%"},
      {"measurement": "pest or weed control at 1 µg/cm2, 100 g/ha", "setting": "[7]", "result": 100, "unit": "%"}
    ]}
  ]
}
